Results published in patent US7767659B2, “Synthesis of naturally occurring ecteinascidins and related compounds” (Pharma Mar, S.A., priority 2002, dated 2010).

Legend:
A-549 = assay: cells; settings: Homo sapiens, A549, 48 h; for GI50: read-out: A549 GI50; for CC50: read-out: A549 LC50; for IC (TGI): read-out: A549 TGI
Method in brief: (§1)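 Colorimetric SRB read (490 nm) on triplicate wells after 48 h at 37 °C, 5% CO2. Dose range 10 to 10^−8 μg/ml; 5×10^3 cells/well pre-attached 18 h.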

HT-29 = assay: cells; settings: Homo sapiens, HT-29, 48 h; for GI50: read-out: HT29 GI50; for CC50: read-out: HT29 LC50; for IC (TGI): read-out: HT29 TGI
Method in brief: as §1

LoVo = assay: cells; settings: Homo sapiens, LoVo, 48 h; for GI50: read-out: LOVO GI50; for CC50: read-out: LOVO LC50; for IC (TGI): read-out: LOVO TGI
Method in brief: as §1

DU-145 = assay: Inhibition of cells growth by colorimetric assay (SRB); settings: Homo sapiens, DU-145, 48 h; for GI50: read-out: DU145 GI50; for CC50: read-out: DU145 LC50; for IC (TGI): read-out: DU145 TGI
Method in brief: as §1

SK-MEL-28 = assay: as above; settings: Homo sapiens, SK-MEL-28, 48 h; for GI50: read-out: MEL-28 GI50; for CC50: read-out: MEL-28 LC50; for IC (TGI): read-out: MEL-28 TGI
Method in brief: as §1

HeLa = assay: as above; settings: Homo sapiens, HeLa, 48 h; for GI50: read-out: HELA GI50; for CC50: read-out: HELA LC50; for IC (TGI): read-out: HELA TGI
Method in brief: as §1

K-562 = assay: as above; settings: Homo sapiens, K562, 48 h; for GI50: read-out: K562 GI50; for CC50: read-out: K562 LC50; for IC (TGI): read-out: K562 TGI
Method in brief: as §1

PANC-1 = assay: as above; settings: Homo sapiens, PANC-1, 48 h; for GI50: read-out: PANC-1 GI50; for CC50: read-out: PANC-1 LC50; for IC (TGI): read-out: PANC-1 TGI
Method in brief: as §1

SK-BR-3 = assay: as above; settings: Homo sapiens, SK-BR-3, 48 h; for GI50: read-out: SK-BR3 GI50; for CC50: read-out: SK-BR3 LC50; for IC (TGI): read-out: SK-BR3 TGI
Method in brief: as §1

LNCaP = assay: as above; settings: Homo sapiens, LNCaP, 48 h; for GI50: read-out: LNCAP GI50; for CC50: read-out: LNCAP LC50; for IC (TGI): read-out: LNCAP TGI
Method in brief: as §1

LoVo-Dox = assay: as above; settings: Homo sapiens, 48 h; for GI50: read-out: LOVO-DOX GI50; for CC50: read-out: LOVO-DOX LC50; for IC (TGI): read-out: LOVO-DOX TGI
Method in brief: as §1

IGROV-ET = assay: as above; settings: Homo sapiens, 48 h; for GI50: read-out: IGROV-ET GI50; for CC50: read-out: IGROV-ET LC50; for IC (TGI): read-out: IGROV-ET TGI
Method in brief: as §1

IGROV-1 = assay: as above; settings: Homo sapiens, IGROV-1, 48 h; for GI50: read-out: IGROV GI50; for CC50: read-out: IGROV LC50; for IC (TGI): read-out: IGROV TGI
Method in brief: as §1

HeLa-APL = assay: as above; settings: Homo sapiens, 48 h; for GI50: read-out: HELA-APL GI50; for CC50: read-out: HELA-APL LC50
Method in brief: as §1

## C=CCN1[C@@H]2c3c(cc(C)c(OC)c3O)C[C@H]1[C@H](C#N)N1C2[C@@H]2SC[C@]3(NCCc4cc(OC(=O)OC(C)(C)C)c(OC)cc43)C(=O)OC[C@H]1c1c3c(c(C)c(O)c12)OCO3 (some centres unmarked) [compound 46]
A-549
  GI50: 0.0289 µM
  CC50: 2.77 µM
  IC (TGI): 0.0618 µM
HT-29
  GI50: 0.0429 µM
  CC50: 11.7 µM
  IC (TGI): 0.117 µM
LoVo
  GI50: 0.0553 µM
  CC50: 11.7 µM
  IC (TGI): 0.304 µM
DU-145
  GI50: 0.0234 µM
  CC50: 0.105 µM
  IC (TGI): 0.0496 µM
SK-MEL-28
  GI50: 0.0296 µM
  CC50: 0.107 µM
  IC (TGI): 0.0564 µM
HeLa
  GI50: 0.0264 µM
  CC50: 0.0974 µM
  IC (TGI): 0.0501 µM
K-562
  GI50: 0.023 µM
  CC50: 4.25 µM
  IC (TGI): 0.0648 µM
PANC-1
  GI50: 0.0619 µM
  CC50: 11.7 µM
  IC (TGI): 0.398 µM
SK-BR-3
  GI50: 0.0186 µM
  CC50: 0.247 µM
  IC (TGI): 0.0532 µM
LNCaP
  GI50: 0.0147 µM
  CC50: 0.0592 µM
  IC (TGI): 0.0296 µM
LoVo-Dox
  GI50: 0.426 µM
  CC50: 11.7 µM
  IC (TGI): 1.35 µM
IGROV-ET
  GI50: 0.285 µM
  CC50: 11.7 µM
  IC (TGI): 1.35 µM
IGROV-1
  GI50: 0.0299 µM
  CC50: 11.7 µM
  IC (TGI): 0.0724 µM
HeLa-APL
  GI50: 0.0277 µM
  CC50: 0.0978 µM
HeLa-APL; read-out: HELA-APL TGI
  IC (TGI): 0.052 µM

## C=CCN1[C@@H]2c3c(cc(C)c(OC)c3O)C[C@H]1[C@H](C#N)N1C2[C@@H]2SC[C@]3(NCCc4cc(OC(=O)OC(C)(C)C)c(OC)cc43)C(=O)OC[C@H]1c1c3c(c(C)c(OC(=O)/C=C/c4ccccc4)c12)OCO3 (some centres unmarked) [compound 47]
A-549
  GI50: 10.2 µM
  CC50: 10.2 µM
  IC (TGI): 10.2 µM
HT-29
  GI50: 10.2 µM
  CC50: 10.2 µM
  IC (TGI): 10.2 µM
LoVo
  GI50: 9.16 µM
  CC50: 10.2 µM
  IC (TGI): 10.2 µM
DU-145
  GI50: 4.12 µM
  CC50: 10.2 µM
  IC (TGI): 10.2 µM
SK-MEL-28
  GI50: 8.7 µM
  CC50: 10.2 µM
  IC (TGI): 10.2 µM
HeLa
  GI50: 4.1 µM
  CC50: 10.2 µM
  IC (TGI): 10.2 µM
K-562
  GI50: 0.173 µM
  CC50: 10.2 µM
  IC (TGI): 2.32 µM
PANC-1
  GI50: 10.2 µM
  CC50: 10.2 µM
  IC (TGI): 10.2 µM
SK-BR-3
  GI50: 0.301 µM
  CC50: 10.2 µM
  IC (TGI): 1.37 µM
LNCaP
  GI50: 0.449 µM
  CC50: 10.2 µM
  IC (TGI): 2.92 µM
LoVo-Dox
  GI50: 10.2 µM
  CC50: 10.2 µM
  IC (TGI): 10.2 µM
IGROV-ET
  GI50: 4.92 µM
  CC50: 10.2 µM
  IC (TGI): 10.2 µM
IGROV-1
  GI50: 4.22 µM
  CC50: 10.2 µM
  IC (TGI): 10.2 µM
HeLa-APL
  GI50: 3.74 µM
  CC50: 10.2 µM
